Drawing on US20180338980A1, “AROMATIC SULFONAMIDE DERIVATIVES” (BAYER PHARMA AKTIENGESELLSCHAFT, priority 2015, published 2018), this text covers IC50 and Emax for 21 molecules.

The target of assay [1] is T1, P2X4 (Homo sapiens, UniProt Q99571).
T1 sequence (Q99571 1-388): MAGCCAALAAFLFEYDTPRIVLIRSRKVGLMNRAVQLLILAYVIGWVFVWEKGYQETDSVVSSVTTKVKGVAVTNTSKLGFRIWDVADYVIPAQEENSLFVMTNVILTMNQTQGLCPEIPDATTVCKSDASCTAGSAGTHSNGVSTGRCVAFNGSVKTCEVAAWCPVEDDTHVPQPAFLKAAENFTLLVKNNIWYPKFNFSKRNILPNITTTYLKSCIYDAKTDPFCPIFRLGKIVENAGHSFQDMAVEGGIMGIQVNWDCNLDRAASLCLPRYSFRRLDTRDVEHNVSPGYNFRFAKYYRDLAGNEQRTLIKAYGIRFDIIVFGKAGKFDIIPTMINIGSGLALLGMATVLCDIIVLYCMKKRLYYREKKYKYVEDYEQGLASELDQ
The assay is described as follows: Assay A: human P2X4 receptor cell line, FLIPR calcium assay (Fluo-8, agonist Bz-ATP at EC80). The class given is cell-based. Further details: host or cells: HEK 293 (recombinant, constitutively expressing; with mitochondrial photina in Assay B). To be noted: HEK human P2X4 cells, Fluo-8 FLIPR; for IC50: Bz-ATP at EC80, average values; for Emax: percentage of maximal inhibition, read-out: human P2X4 Assay A avg Efficacy. In short, it runs like this:
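Antagonism read as inhibition of the calcium response to EC80 Bz-ATP, by peak-over-basal Fluo-8 fluorescence over 120 s, normalized to DMSO wells. Human P2X4-HEK cells, dye-loaded 30 min in probenecid-containing HBSS/HEPES pH 7.4, received compound 30 min beforehand at room temperature, 0.5% DMSO final. Triplicates fitted for IC50, maximal inhibition and Hill slope.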

The target of assay [2] is T1, P2X4. The assay is described as follows: Assay B: human P2X4 receptor cell line, mitochondrial photina luminescence (agonist Bz-ATP at EC50). To be noted: HEK human P2X4 cell line, photina luminescence, agonist Bz-ATP at EC50, average; for Emax: read-out: human P2X4 Assay B avg Efficacy. It counts as cell-based. Also on record: host or cells: HEK 293 (recombinant, constitutively expressing; with mitochondrial photina in Assay B). In short, it runs like this:
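Bz-ATP at its EC50 activates human P2X4 stably expressed in a cell line that also carries the calcium-sensitive photoprotein mitochondrial photina (coelenterazine cofactor). Light emitted on calcium influx is measured straight away in a luminometer. Reduced luminescence indicates antagonism.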

`NS(=O)(=O)c1cc(NC(=O)Cc2ccc(C(F)(F)F)cc2Cl)ccc1Oc1cccc(Cl)c1` [Example 135, N-[4-(3-Chlorophenoxy)-3-sulfamoylphenyl]-2-[2-chloro-4-(trifluoromethyl)phenyl]acetamide]: the IC50 in assay [1] came out at 631 nM; in assay [2] it was 870 nM. Also, the Emax in assay [1] stood at 75%; in assay [2] it was 45%.

As for `CS(=O)(=O)c1cccc(COc2ccc(NC(=O)Cc3ccccc3Cl)cc2S(N)(=O)=O)c1` [Example 136, 2-(2-Chlorophenyl)-N-(4-{[3-(methylsulfonyl)benzyl]oxy}-3-sulfamoylphenyl)acetamide], in assay [1], the IC50 amounted to 10 nM and the Emax turned out to be 90%. In assay [2], the IC50 is 102 nM and the Emax stood at 83%.

For the molecule `COc1cccc(COc2ccc(NC(=O)Cc3ccccc3Cl)cc2S(N)(=O)=O)c1` [Example 140, 2-(2-Chlorophenyl)-N-{4-[(3-methoxybenzyl)oxy]-3-sulfamoylphenyl}acetamide], in assay [1], the IC50 is 8 nM and the Emax stood at 103%. Moreover, in assay [2], the IC50 is 44 nM and the Emax stood at 67%.

Take `N#Cc1cccc(COc2ccc(NC(=O)Cc3ccccc3Cl)cc2S(N)(=O)=O)c1` [Example 142, 2-(2-Chlorophenyl)-N-{4-[(3-cyanobenzyl)oxy]-3-sulfamoylphenyl}acetamide]: in assay [1], the IC50 was 43 nM and the Emax is 90%. Also, in assay [2], the IC50 came to 60 nM and the Emax was determined as 70%.

As for `NS(=O)(=O)c1cc(NC(=O)Cc2ccccc2Cl)ccc1OCc1ccc(F)cc1` [Example 143, 2-(2-Chlorophenyl)-N-{4-[(4-fluorobenzyl)oxy]-3-sulfamoylphenyl}acetamide], the IC50 was found to be 9 nM in assay [1] and 39 nM in assay [2]. Besides, the figures for the Emax in assay [1] and in assay [2] were 72% and 71%, respectively.

As for `NS(=O)(=O)c1cc(NC(=O)Cc2ccccc2Cl)ccc1OCc1ccccc1Cl` [Example 144, N-{4-[(2-Chlorobenzyl)oxy]-3-sulfamoylphenyl}-2-(2-chlorophenyl)acetamide], in assay [1], the IC50 is 86 nM and the Emax is 93%. In assay [2], the IC50 came to 129 nM and the Emax turned out to be 76%.

In the case of `NS(=O)(=O)c1cc(NC(=O)Cc2ccccc2Cl)ccc1OCc1cccnc1` [Example 149, 2-(2-Chlorophenyl)-N-[4-(pyridin-3-ylmethoxy)-3-sulfamoylphenyl]acetamide], the IC50 in assay [1] was 45 nM; in assay [2], 118 nM. Moreover, the values for the Emax in assay [1] and in assay [2] were 81% and 77%, respectively.

Consider `NS(=O)(=O)c1cc(NC(=O)Cc2ccccc2Cl)ccc1OCc1ccccn1` [Example 150, 2-(2-Chlorophenyl)-N-[4-(pyridin-2-ylmethoxy)-3-sulfamoylphenyl]acetamide], for which the Emax in assay [1] worked out at 96%; in assay [2], 79%.

With `NS(=O)(=O)c1cc(NC(=O)Cc2ccccc2Cl)ccc1OCc1ccncc1` [Example 151, 2-(2-Chlorophenyl)-N-[4-(pyridin-4-ylmethoxy)-3-sulfamoylphenyl]acetamide], the IC50 stood at 143 nM in assay [1] and 69 nM in assay [2]. The Emax in assay [1] was 88%; in assay [2] it was 97%.

On to `NS(=O)(=O)c1cc(NC(=O)Cc2ccccc2Cl)ccc1OCCc1ccccc1` [Example 155, 2-(2-Chlorophenyl)-N-[4-(2-phenylethoxy)-3-sulfamoylphenyl]acetamide], for which the Emax worked out at 87% in assay [1] and 65% in assay [2].

For the molecule `NS(=O)(=O)c1cc(NC(=O)Cc2ccccc2Cl)ccc1OCC1CCC1` [Example 157, 2-(2-Chlorophenyl)-N-[4-(cyclobutylmethoxy)-3-sulfamoylphenyl]acetamide], the figures for the Emax in assay [1] and in assay [2] were 67% and 55%, respectively.

On to `NS(=O)(=O)c1cc(NC(=O)Cc2ccccc2Cl)ccc1OCC1CCO1` (stereo not shown) [Example 158, 2-(2-Chlorophenyl)-N-[4-(oxetan-2-ylmethoxy)-3-sulfamoylphenyl]acetamide], for which the Emax is 91% in assay [1] and 75% in assay [2].

Take `NS(=O)(=O)c1cc(NC(=O)Cc2ccccc2Cl)ccc1OCC1CCCOC1` (stereo not shown) [Example 165, 2-(2-Chlorophenyl)-N-[3-sulfamoyl-4-(tetrahydro-2H-pyran-3-ylmethoxy)phenyl]acetamide]: in assay [1], the IC50 stood at 162 nM and the Emax came to 59%. In addition, in assay [2], the IC50 is 97 nM and the Emax stood at 43%.

As for `NS(=O)(=O)c1cc(NC(=O)Cc2cccc(F)c2Cl)ccc1OCC1CCOCC1` [Example 167, 2-(2-Chloro-3-fluorophenyl)-N-[3-sulfamoyl-4-(tetrahydro-2H-pyran-4-ylmethoxy)phenyl]acetamide], the Emax in assay [1] amounted to 87%; in assay [2], 80%.

`NS(=O)(=O)c1cc(NC(=O)Cc2ccccc2Cl)cnc1Oc1cccc(C(F)(F)F)c1` [Example 168, 2-(2-chlorophenyl)-N-{5-sulfamoyl-6-[3-(trifluoromethyl)phenoxy]pyridin-3-yl}acetamide]: the IC50 came out at 86 nM in assay [1] and 181 nM in assay [2]. Besides, the Emax was 90% in assay [1] and 85% in assay [2].

For the molecule `NS(=O)(=O)c1cc(NC(=O)Cc2ccccc2)cnc1Oc1cccc(C(F)(F)F)c1` [Example 169, 2-Phenyl-N-{5-sulfamoyl-6-[3-(trifluoromethyl)phenoxy]pyridin-3-yl}acetamide], in assay [1], the IC50 was determined as 274 nM and the Emax stood at 74%. For the same molecule, in assay [2], the IC50 came to 1030 nM and the Emax was determined as 75%.

For the molecule `NS(=O)(=O)c1cc(NC(=O)Cc2ccccc2Cl)ccc1Oc1cccc(N2CCOCC2=O)c1` [Example 173, 2-(2-Chlorophenyl)-N-{4-[3-(3-oxomorpholin-4-yl)phenoxy]-3-sulfamoylphenyl}acetamide], the Emax in assay [1] was 100%; in assay [2], 92%.

`NS(=O)(=O)c1cc(NC(=O)Cc2ccccc2Cl)ccc1Oc1ccc(N2CCOCC2=O)cc1` [Example 174, 2-(2-Chlorophenyl)-N-{4-[4-(3-oxomorpholin-4-yl)phenoxy]-3-sulfamoylphenyl}acetamide]: the Emax in assay [1] stood at 74%; in assay [2] it was 64%.

For `NS(=O)(=O)c1cc(NC(=O)Cc2ccccc2Cl)ccc1Oc1ccc(N2CCCCC2=O)cc1` [Example 175, 2-(2-Chlorophenyl)-N-{4-[4-(2-oxopiperidin-1-yl)phenoxy]-3-sulfamoylphenyl}acetamide], in assay [1], the IC50 worked out at 1300 nM and the Emax is 52%. For the same molecule, in assay [2], the IC50 is 15000 nM and the Emax turned out to be 67%.

Regarding `NS(=O)(=O)c1cc(NC(=O)Cc2ccccc2Cl)ccc1Oc1cccc(N2CCCCC2=O)c1` [Example 176, 2-(2-Chlorophenyl)-N-{4-[3-(2-oxopiperidin-1-yl)phenoxy]-3-sulfamoylphenyl}acetamide], in assay [1], the IC50 was 459 nM and the Emax was 82%. In assay [2], the IC50 is 880 nM and the Emax worked out at 53%.

For the molecule `C=C(C)c1cccc(Oc2ccc(NC(=O)Cc3ccccc3Cl)cc2S(N)(=O)=O)c1` [Example 177, 2-(2-Chlorophenyl)-N-{4-[3-(prop-1-en-2-yl)phenoxy]-3-sulfamoylphenyl}acetamide], in assay [1], the IC50 was determined as 265 nM and the Emax worked out at 80%. Further, in assay [2], the IC50 turned out to be 970 nM and the Emax amounted to 69%.
